Patent publication US10821115B2, “Compounds that inhibit Mcl-1 protein” (priority 2017, dated 2020)

Legend:
[1] = tested on: human multiple myeloma cell line, OPM-2; assay: Cell viability assay (OPM-2 10 FBS), CellTiter-Glo; type: cell-based; details: Homo sapiens, OPM-2, 16 h, read-out: OPM-2 10% FBS IC50 IP, OPM-2 cells, 10% FBS, 16 h incubation
Summary of the method: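 IC50 values come from 4-parameter logistic fits of luminescence signals reflecting cell viability. Treatment lasted 16 h at 37 °C in complete medium with 10% FBS, starting from 3000 cells/well.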

[2] = biological target: recombinant human Mcl-1 (residues 171-327) / Bim interaction (Homo sapiens (Human), UniProt Q07820); assay: biochemical; type: binding; details: 0.1 nM Mcl-1(171-327), 0.05 nM biotin-Bim (51-76); read-out: Mcl-1 HTRF IC50
recombinant human Mcl-1 (residues 171-327) / Bim interaction, sequence (Q07820 171-327): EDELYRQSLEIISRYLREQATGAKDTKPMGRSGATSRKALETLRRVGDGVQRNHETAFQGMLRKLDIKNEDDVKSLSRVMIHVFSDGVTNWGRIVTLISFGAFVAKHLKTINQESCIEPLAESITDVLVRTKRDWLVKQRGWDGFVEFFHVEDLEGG

SMILES	IC50 [1] [nM]	IC50 [2] [nM]
CCOCCN1CCN(C[C@]2(OC)/C=C/C[C@H](C)[C@@H](C)S(=O)(=O)NC(=O)c3ccc4c(c3)N(C[C@@H]3CC[C@H]32)C[C@@]2(CCCc3cc(Cl)ccc32)CO4)CC1 [Example 303, (1S,3′R,6′R,7′S,8′E,11′S,12′R)-6-chloro-7′-((4-(2-ethoxyethyl)-1-piperazinyl)methyl)-7′-methoxy-11′,12′-dimethyl-3,4-dihydro-2H,15′H-spiro[naphthalene-1,22′-[20]oxa[13]thia[1,14]diazatetracyclo [14.7.2.0~3,6~.0~19,24~]pentacosa[8,16,18,24]tetraen]-15′-one 13′,13′-dioxide]	101	0.15
COCC(COC)N1CCN(C[C@@]2(OC)/C=C/C[C@H](C)[C@@H](C)S(=O)(=O)NC(=O)c3ccc4c(c3)N(C[C@@H]3CC[C@H]32)C[C@@]2(CCCc3cc(Cl)ccc32)CO4)CC1 [Example 304, (1S,3′R,6′R,7′R,8′E,11′S,12′R)-6-chloro-7′-methoxy-7′-((4-(2-methoxy-1-(methoxymethyl)ethyl)-1-piperazinyl)methyl)-11′,12′-dimethyl-3,4-dihydro-2H,15′H-spiro[naphthalene-1,22′-[20]oxa[13]thia[1,14]diazatetracyclo [14.7.2.0~3,6~.0~19,24~]pentacosa[8,16,18,24]tetraen]-15′-one 13′,13′-dioxide]	239	0.226
CO[C@@]1(CN2CCN(c3cncnc3)CC2)/C=C/C[C@H](C)[C@@H](C)S(=O)(=O)NC(=O)c2ccc3c(c2)N(C[C@@H]2CC[C@H]21)C[C@@]1(CCCc2cc(Cl)ccc21)CO3 [Example 305, (1S,3′R,6′R,7′S,8′E,11′S,12′R)-6-chloro-7′-methoxy-11′,12′-dimethyl-7′-((4-(5-pyrimidinyl)-1-piperazinyl)methyl)-3,4-dihydro-2H,15′H-spiro[naphthalene-1,22′-[20]oxa[13]thia[1,14]diazatetracyclo [14.7.2.0~3,6~.0~19,24~]pentacosa[8,16,18,24]tetraen]-15′-one 13′,13′-dioxide]	327	0.33
CO[C@@]1(CN2CCN(CC(F)F)CC2)/C=C/C[C@H](C)[C@@H](C)S(=O)(=O)NC(=O)c2ccc3c(c2)N(C[C@@H]2CC[C@H]21)C[C@@]1(CCCc2cc(Cl)ccc21)CO3 [Example 306, (1S,3′R,6′R,7′S,8′E,11′S,12′R)-6-chloro-7′-((4-(2,2-difluoroethyl)-1-piperazinyl)methyl)-7′-methoxy-11′,12′-dimethyl-3,4-dihydro-2H,15′H-spiro[naphthalene-1,22′-[20]oxa[13]thia[1,14]diazatetracyclo [14.7.2.0~3,6~.0~19,24~]pentacosa[8,16,18,24]tetraen]-15′-one 13′,13′-dioxide]	246	0.282
CO[C@]1(CN2CCN(C(C)(C)C)CC2)/C=C/C[C@H](C)[C@@H](C)S(=O)(=O)NC(=O)c2ccc3c(c2)N(C[C@@H]2CC[C@H]21)C[C@@]1(CCCc2cc(Cl)ccc21)CO3 [Example 307, (1S,3′R,6′R,7′R,8′E,11′S,12′R)-7′-((4-tert-butyl-1-piperazinyl)methyl)-6-chloro-7′-methoxy-11′,12′-dimethyl-3,4-dihydro-2H,15′H-spiro[naphthalene-1,22′-[20]oxa[13]thia[1,14]diazatetracyclo [14.7.2.0~3,6~.0~19,24~]pentacosa[8,16,18,24]tetraen]-15′-one 13′,13′-dioxide]	41	0.087
CO[C@@]1(CN2CCN(CC3OCCO3)CC2)/C=C/C[C@H](C)[C@@H](C)S(=O)(=O)NC(=O)c2ccc3c(c2)N(C[C@@H]2CC[C@H]21)C[C@@]1(CCCc2cc(Cl)ccc21)CO3 [Example 309, (1S,3′R,6′R,7′S,8′E,11′S,12′R)-6-chloro-7′-((4-(1,3-dioxolan-2-ylmethyl)-1-piperazinyl)methyl)-7′-methoxy-11′,12′-dimethyl-3,4-dihydro-2H,15′H-spiro[naphthalene-1,22′-[20]oxa[13]thia[1,14]diazatetracyclo [14.7.2.0~3,6~.0~19,24~]pentacosa[8,16,18,24]tetraen]-15′-one 13′,13′-dioxide]	64	0.215
CO[C@@]1(CN2CCN(CC3COC3)CC2)/C=C/C[C@H](C)[C@@H](C)S(=O)(=O)NC(=O)c2ccc3c(c2)N(C[C@@H]2CC[C@H]21)C[C@@]1(CCCc2cc(Cl)ccc21)CO3 [Example 313, (1S,3′R,6′R,7′S,8′E,11′S,12′R)-6-chloro-7′-methoxy-11′,12′-dimethyl-7′-((4-(3-oxetanylmethyl)-1-piperazinyl)methyl)-3,4-dihydro-2H,15′H-spiro[naphthalene-1,22′-[20]oxa[13]thia[1,14]diazatetracyclo [14.7.2.0~3,6~.0~19,24~]pentacosa[8,16,18,24]tetraen]-15′-one 13′,13′-dioxide]	131	0.225
CO[C@]1(CN2C[C@H]3C[C@@H]2CN3C(C)C)/C=C/C[C@H](C)[C@@H](C)S(=O)(=O)NC(=O)c2ccc3c(c2)N(C[C@@H]2CC[C@H]21)C[C@@]1(CCCc2cc(Cl)ccc21)CO3 [Example 314, (1S,3′R,6′R,7′R,8′E,11′S,12′R)-6-chloro-7′-methoxy-11′,12′-dimethyl-7′-(((1R,4R)-5-(1-methylethyl)-2,5-diazabicyclo[2.2.1]hept-2-yl)methyl)-3,4-dihydro-2H,15′H-spiro[naphthalene-1,22′-[20]oxa[13]thia[1,14]diazatetracyclo [14.7.2.0~3,6~.0~19,24~]pentacosa[8,16,18,24]tetraen]-15′-one 13′,13′-dioxide]	126	0.118
CO[C@]1(CN2C[C@@H]3C[C@H]2CN3C(C)C)/C=C/C[C@H](C)[C@@H](C)S(=O)(=O)NC(=O)c2ccc3c(c2)N(C[C@@H]2CC[C@H]21)C[C@@]1(CCCc2cc(Cl)ccc21)CO3 [Example 315, (1S,3′R,6′R,7′R,8′E,11′S,12′R)-6-chloro-7′-methoxy-11′,12′-dimethyl-7′-(((1S,4S)-5-(1-methylethyl)-2,5-diazabicyclo[2.2.1]hept-2-yl)methyl)-3,4-dihydro-2H,15′H-spiro[naphthalene-1,22′-[20]oxa[13]thia[1,14]diazatetracyclo [14.7.2.0~3,6~.0~19,24~]pentacosa[8,16,18,24]tetraen]-15′-one 13′,13′-dioxide]	124	0.122
CO[C@@]1(CN2CCN(Cc3noc(C)n3)CC2)/C=C/C[C@H](C)[C@@H](C)S(=O)(=O)NC(=O)c2ccc3c(c2)N(C[C@@H]2CC[C@H]21)C[C@@]1(CCCc2cc(Cl)ccc21)CO3 [Example 316, (1S,3′R,6′R,7′S,8′E,11′S,12′R)-6-chloro-7′-methoxy-11′,12′-dimethyl-7′-((4-((5-methyl-1,2,4-oxadiazol-3-yl)methyl)-1-piperazinyl)methyl)-3,4-dihydro-2H,15′H-spiro[naphthalene-1,22′-[20]oxa[13]thia[1,14]diazatetracyclo [14.7.2.0~3,6~.0~19,24~]pentacosa[8,16,18,24]tetraen]-15′-one 13′,13′-dioxide]	47	0.166
CO[C@@]1(CN2CCN(Cc3nc(C)no3)CC2)/C=C/C[C@H](C)[C@@H](C)S(=O)(=O)NC(=O)c2ccc3c(c2)N(C[C@@H]2CC[C@H]21)C[C@@]1(CCCc2cc(Cl)ccc21)CO3 [Example 317, (1S,3′R,6′R,7′S,8′E,11′S,12′R)-6-chloro-7′-methoxy-11′,12′-dimethyl-7′-((4-((3-methyl-1,2,4-oxadiazol-5-yl)methyl)-1-piperazinyl)methyl)-3,4-dihydro-2H,15′H-spiro[naphthalene-1,22′-[20]oxa[13]thia[1,14]diazatetracyclo [14.7.2.0~3,6~.0~19,24~]pentacosa[8,16,18,24]tetraen]-15′-one 13′,13′-dioxide]	88	0.186
CO[C@@]1(CN2CCN(CCC#N)CC2)/C=C/C[C@H](C)[C@@H](C)S(=O)(=O)NC(=O)c2ccc3c(c2)N(C[C@@H]2CC[C@H]21)C[C@@]1(CCCc2cc(Cl)ccc21)CO3 [Example 318, 3-(4-(((1S,3′R,6′R,7′S,8′E,11′S, 12′R)-6-chloro-7′-methoxy-11′,12′-dimethyl-13′,13′-dioxido-15′-oxo-3,4-dihydro-2H-spiro[naphthalene-1,22′-[20]oxa[13]thia[1,14]diazatetracyclo [14.7.2.0~3,6~.0~19,24~]pentacosa[8,16,18,24]tetraen]-7′-yl)methyl)-1-piperazinyl)propanenitrile]	77	0.138
CO[C@]1(CN2CC3(C2)CN(C(C)C)C3)/C=C/C[C@H](C)[C@@H](C)S(=O)(=O)NC(=O)c2ccc3c(c2)N(C[C@@H]2CC[C@H]21)C[C@@]1(CCCc2cc(Cl)ccc21)CO3 [Example 320, (1S,3′R,6′R,7′R,8′E,11′S,12′R)-6-chloro-7′-methoxy-11′,12′-dimethyl-7′-((6-(1-methylethyl)-2,6-diazaspiro[3.3]hept-2-yl)methyl)-3,4-dihydro-2H,15′H-spiro[naphthalene-1,22′-[20]oxa[13]thia[1,14]diazatetracyclo [14.7.2.0~3,6~.0~19,24~]pentacosa[8,16,18,24]tetraen]-15′-one 13′,13′-dioxide]	302	0.524
CO[C@@]1(CN2CCN(Cc3ncon3)CC2)/C=C/C[C@H](C)[C@@H](C)S(=O)(=O)NC(=O)c2ccc3c(c2)N(C[C@@H]2CC[C@H]21)C[C@@]1(CCCc2cc(Cl)ccc21)CO3 [Example 321, (1S,3′R,6′R,7′S,8′E,11′S,12′R)-6-chloro-7′-methoxy-11′,12′-climethyl-7′-((4-(1,2,4-oxadiazol-3-ylmethyl)-1-piperazinyl)methyl)-3,4-dihydro-2H,15′H-spiro[naphthalene-1,22′-[20]oxa[13]thia[1,14]diazatetracyclo [14.7.2.0~3,6~.0~19,24~]pentacosa[8,16,18,24]tetraen]-15′-one 13′,13′-dioxide]	92	0.145
